This is an account of results in PubChem BioAssay AID192 (DTP/NCI, 2004).

This assay has as its system BDF1 mice, B16 melanoma ip, median survival T/C. Kind of assay: NCI In Vivo Anticancer Drug Screen. Data for tumor model B16 Melanoma (intraperitoneal) in B6D2F1 (BDF1) mice. The conditions noted are these: endpoint: median survival time, higher = longer survival. The method, boiled down: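 Transplantable tumor model; survival or tumor size measured; reported as T/C, treated over vehicle control.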

Setting [1] is: dose: 50.0 mg/kg/injection, schedule: Q01DX009 (ip), vehicle: saline with Tween-80.
Where [2] appears, read: dose: 100.0 mg/kg/injection, schedule: Q01DX009 (ip), vehicle: saline with Tween-80.
Where [3] appears, read: dose: 200.0 mg/kg/injection, schedule: Q01DX009 (ip), vehicle: saline with Tween-80.
Where [4] appears, read: dose: 12.5 mg/kg/injection, schedule: Q01DX009 (ip), vehicle: Klucel (hydroxypropylcellulose) (HPC).
The mark [5] stands for this setting: dose: 50.0 mg/kg/injection, schedule: Q01DX009 (ip), vehicle: Klucel (hydroxypropylcellulose) (HPC).
Setting [6] is: dose: 100.0 mg/kg/injection, schedule: Q01DX009 (ip), vehicle: Klucel (hydroxypropylcellulose) (HPC).
The mark [7] stands for this setting: dose: 200.0 mg/kg/injection, schedule: Q01DX009 (ip), vehicle: Klucel (hydroxypropylcellulose) (HPC).
Where [8] appears, read: dose: 400.0 mg/kg/injection, schedule: Q01DX009 (ip), vehicle: Klucel (hydroxypropylcellulose) (HPC).
[9] abbreviates: dose: 6.25 mg/kg/injection, schedule: Q01DX009 (ip), vehicle: Klucel (hydroxypropylcellulose) (HPC).
[10] abbreviates: dose: 25.0 mg/kg/injection, schedule: Q01DX009 (ip), vehicle: Klucel (hydroxypropylcellulose) (HPC).
The mark [11] stands for this setting: dose: 25.0 mg/kg/injection, schedule: Q01DX009 (ip), vehicle: saline with Tween-80.
The mark [12] stands for this setting: dose: 25.0 mg/kg/injection, schedule: Q01DX009 (ip), vehicle: saline.
The mark [13] stands for this setting: dose: 50.0 mg/kg/injection, schedule: Q01DX009 (ip), vehicle: saline.

Values joined by “and” are separate entries in the source; they are usually repeats but may differ in a detail not shown here. Identical values can stand only once. Toxic doses and inconclusive results are not listed.

Turning to `O=C(O)c1ccc(C(=O)O)c(C(=O)O)c1.[NH-]C1CCCCC1[NH-].[Pt+2]`, the T/C is 151 % of control (dose: 0.19 mg/kg/injection, schedule: Q01DX009 (ip), vehicle: sodium bicarbonate); 118 % of control (dose: 0.39 mg/kg/injection, schedule: Q01DX009 (ip), vehicle: sodium bicarbonate); 116 % of control (dose: 0.4 mg/kg/injection, schedule: Q01DX009 (ip), vehicle: sodium bicarbonate); 185 % of control (dose: 0.78 mg/kg/injection, schedule: Q01DX009 (ip), vehicle: sodium bicarbonate); 165 % of control (dose: 0.8 mg/kg/injection, schedule: Q01DX009 (ip), vehicle: other); 181 % of control (dose: 1.56 mg/kg/injection, schedule: Q01DX009 (ip), vehicle: other). The T/C is, setting by setting: (dose: 1.56 mg/kg/injection, schedule: Q01DX009 (ip), vehicle: sodium bicarbonate) 158 % of control and 159 % of control; (dose: 1.6 mg/kg/injection, schedule: Q01DX009 (ip), vehicle: other) 157 % of control; (dose: 1.6 mg/kg/injection, schedule: Q01DX009 (ip), vehicle: sodium bicarbonate) 161 % of control; (dose: 3.12 mg/kg/injection, schedule: Q01DX009 (ip), vehicle: other) 169 % of control; (dose: 3.2 mg/kg/injection, schedule: Q01DX009 (ip), vehicle: sodium bicarbonate) 168 % of control; (dose: 4.8 mg/kg/injection, schedule: Q01DX009 (ip), vehicle: sodium bicarbonate) 169 % of control. Further, the T/C (dose: 6.25 mg/kg/injection, schedule: Q01DX009 (ip), vehicle: other) was 171 % of control.

Turning to `Nc1ccc(OS(=O)(=O)c2ccccc2)cc1`, the T/C by setting is: under setting [1], 97 % of control; under setting [2], 100 % of control; under setting [3], 101 % of control; (dose: 400.0 mg/kg/injection, schedule: Q01DX009 (ip), vehicle: saline with Tween-80) 90 % of control.

Regarding `CN(C)C1CCCCC1`, the T/C by setting is: under setting [4], 91 % of control; (dose: 12.5 mg/kg/injection, schedule: Q04DX003 (ip), vehicle: Klucel (hydroxypropylcellulose) (HPC)) 116 % of control; (dose: 25.0 mg/kg/injection, schedule: Q04DX003 (ip), vehicle: Klucel (hydroxypropylcellulose) (HPC)) 100 % of control; under setting [5], 100 % of control; (dose: 50.0 mg/kg/injection, schedule: Q04DX003 (ip), vehicle: Klucel (hydroxypropylcellulose) (HPC)) 91 % of control.

As to `COc1ccc(NC(=S)NNC(=S)NNc2ccccc2)cc1`, the T/C is 97 % of control (dose: 100.0 mg/kg/injection, schedule: Q04DX003 (ip), vehicle: Klucel (hydroxypropylcellulose) (HPC)); 93 % of control (dose: 200.0 mg/kg/injection, schedule: Q04DX003 (ip), vehicle: Klucel (hydroxypropylcellulose) (HPC)); 86 % of control (dose: 400.0 mg/kg/injection, schedule: Q04DX003 (ip), vehicle: Klucel (hydroxypropylcellulose) (HPC)).

`CCCCC(CCCC)(C(N)=O)C(=O)OCC`: the T/C under setting [6] was 106 % of control, the T/C under setting [7] is 100 % of control and the T/C under setting [8] was 103 % of control.

Consider `O.O.O=c1[nH]cc(CO)c(=O)[nH]1.[NH2-].[NH2-].[Pt+2]`, for which the T/C runs as follows: (dose: 3.12 mg/kg/injection, schedule: Q01DX009 (ip), vehicle: Klucel (hydroxypropylcellulose) (HPC)) 107 % of control; under setting [9], 106 % of control; under setting [10], 185 % of control.

As for `CNC(=O)Nc1ccc(Cl)cc1C`, the T/C under setting [10] was 95 % of control; the T/C under setting [5] is 97 % of control; the T/C under setting [6] was 92 % of control and 121 % of control.

`COc1ccccc1Oc1ccc(N=Cc2ccc(C)cc2)cc1`: the T/C was 102 % of control under setting [5]; 86 % of control and 102 % of control under setting [6]; 100 % of control and 111 % of control under setting [7]; 86 % of control under setting [8].

Take `Cc1ccc(C(=O)/C=C/c2ccccc2O)cc1`: the T/C by setting is: (dose: 37.5 mg/kg/injection, schedule: Q01DX009 (ip), vehicle: Klucel (hydroxypropylcellulose) (HPC)) 103 % of control; (dose: 75.0 mg/kg/injection, schedule: Q01DX009 (ip), vehicle: Klucel (hydroxypropylcellulose) (HPC)) 90 % of control; (dose: 150.0 mg/kg/injection, schedule: Q01DX009 (ip), vehicle: Klucel (hydroxypropylcellulose) (HPC)) 98 % of control; (dose: 300.0 mg/kg/injection, schedule: Q01DX009 (ip), vehicle: Klucel (hydroxypropylcellulose) (HPC)) 88 % of control.

With `COC(=O)NC1C(C)OC(OC2C/C=C(/C)C3C=CC4C(OC5CC(OC6CCC(OC7CC(O)C(OC8CCC(O)C(C)O8)C(C)O7)C(C)O6)C(OC(C)=O)C(C)O5)C(C)CC(C)C4C3(C)/C(O)=C3/C(=O)OC4(CC(C=O)=CC(O)C4/C=C\2C)C3=O)CC1(C)[N+](=O)[O-]` (stereo not given), the T/C (dose: 2.5 mg/kg/injection, schedule: Q01DX009 (ip), vehicle: water) is 159 % of control; the T/C (dose: 5.0 mg/kg/injection, schedule: Q01DX009 (ip), vehicle: water) is 165 % of control; the T/C (dose: 10.0 mg/kg/injection, schedule: Q01DX009 (ip), vehicle: water) was 157 % of control.

On to `C(=N\OCc1ccccc1)/c1ccccn1`, for which the T/C under setting [6] is 101 % of control, the T/C under setting [7] is 101 % of control and the T/C under setting [8] is 97 % of control.

In the case of `COc1ccc(NC(=O)Nc2cccc(Cl)c2C)cc1`, the T/C under setting [11] was 100 % of control and the T/C under setting [1] was 102 % of control.

As for `CC(C)NNC(=O)c1ccc(Cl)cc1`, the T/C is 89 % of control under setting [9]; 92 % of control under setting [4]; 89 % of control under setting [10]; 94 % of control under setting [5]; 107 % of control under setting [6].

`CCOC(=O)CC(SP(=S)(OC)OC)C(=O)OCC` (stereo not given): the T/C runs as follows: under setting [11], 94 % of control and 107 % of control; under setting [12], 106 % of control; under setting [1], 96 % of control and 97 % of control; under setting [13], 95 % of control; under setting [2], 91 % of control and 98 % of control; (dose: 100.0 mg/kg/injection, schedule: Q01DX009 (ip), vehicle: saline) 101 % of control. The T/C under setting [3] was 88 % of control and 96 % of control; the T/C (dose: 200.0 mg/kg/injection, schedule: Q01DX009 (ip), vehicle: saline) is 101 % of control.

For `CSc1nc(N)cc(NC(=O)CCl)n1`, the T/C by setting is: (dose: 6.25 mg/kg/injection, schedule: Q01DX009 (ip), vehicle: saline with Tween-80) 109 % of control; (dose: 12.5 mg/kg/injection, schedule: Q01DX009 (ip), vehicle: saline with Tween-80) 97 % of control; under setting [11], 89 % of control and 118 % of control; under setting [1], 97 % of control and 120 % of control.

With `CCCN1CSC(=S)N(CCC)C1`, the T/C reads like this: under setting [5], 89 % of control; under setting [6], 102 % of control; under setting [7], 102 % of control.

With `O=CN(c1ccccc1)c1ccccc1`, the T/C by setting is: (dose: 50.0 mg/kg/injection, schedule: Q01DX009 (ip), vehicle: other) 100 % of control; (dose: 100.0 mg/kg/injection, schedule: Q01DX009 (ip), vehicle: other) 100 % of control; (dose: 200.0 mg/kg/injection, schedule: Q01DX009 (ip), vehicle: other) 105 % of control; (dose: 400.0 mg/kg/injection, schedule: Q01DX009 (ip), vehicle: other) 97 % of control.

On to `CC(=O)[O][Pb]([CH2]CC(C)C)([CH2]CC(C)C)[CH2]CC(C)C`, for which the T/C reads like this: (dose: 0.75 mg/kg/injection, schedule: Q01DX009 (ip), vehicle: Klucel (hydroxypropylcellulose) (HPC)) 100 % of control; (dose: 1.5 mg/kg/injection, schedule: Q01DX009 (ip), vehicle: Klucel (hydroxypropylcellulose) (HPC)) 86 % of control.

Consider `CC/C=C/c1cccc(OC)c1`, for which the T/C by setting is: under setting [6], 96 % of control; under setting [7], 96 % of control; under setting [8], 92 % of control.

`Nc1c(Cl)cc(C(=O)NC2CC2)cc1Cl`: the T/C reads like this: (dose: 6.25 mg/kg/injection, schedule: Q01DX009 (ip), vehicle: saline) 92 % of control; (dose: 12.5 mg/kg/injection, schedule: Q01DX009 (ip), vehicle: saline) 102 % of control; under setting [12], 113 % of control; under setting [13], 97 % of control.

In the case of `O=C(O)CSCCc1ccccc1`, the T/C is 96 % of control under setting [6], 93 % of control under setting [7] and 100 % of control under setting [8].

Consider `Nc1nc(N)c(-c2ccc(Cl)c(Cl)c2)c(CP(Cl)(Cl)(Cl)Br)n1`, for which the T/C by setting is: (dose: 6.3 mg/kg/injection, schedule: Q01DX009 (ip), vehicle: Klucel (hydroxypropylcellulose) (HPC)) 112 % of control; under setting [4], 111 % of control; under setting [10], 115 % of control; under setting [5], 123 % of control.
